Measured values published in patent US12246011B2, “Radiation mitigator and method of use thereof” (Georgetown University, priority 2016, dated 2025).

Legend:
[1] = test system: YAMC (normal colonic epithelial cell line); experiment: Colony forming assay (cell survival) after 4 Gy IR; assay type: cell-based, Murine; conditions: treatment 24 h post-IR at 10 μM, 100 μM and 1 mM, colonies counted at end of 96 h
Procedure: (§1) Gamma radiation: YAMC (normal colonic epithelial cell line) were exposed to 4 Gy gamma ionizing radiation (IR) with air pumped into the chamber during exposure. A Gammacell 40 ^137Cs gamma irradiator was used with a dose rate of 0.8 Gy IR per minute. Dosimetry measurements were performed using Fricke Dosimetry systems. Measured absorbance dose was: Central Dose Rate (0.790 Gy/min±2.9%); 3 o'clock position (0.804 Gy/min±3.8%); and 7 o'clock position (0.808 Gy/min±2.7%). The experiments were performed within 6 months of the dosimetry analysis.
Colony forming assay: Colony forming assay is universally recognized as the gold standard method for measuring the effects of radiation, chemotherapeutic drugs on cell viability, and cell survival. […] At the end of 96 h, cells were fixed and counted for number of colonies formed. The number of colonies formed represents the number of cells survived.
as §1, with “The experiments were performed within 6 months of the dosimetry analysis.” left out

[2] = test system: YAMC (normal colonic epithelial cell line); experiment: Clonogenic assay for self-renewal (spheroid formation) after 4 Gy IR; assay type: cell-based, Murine; conditions: treatment 24 h post-IR at 10 μM, 100 μM and 1 mM, spheroids counted at end of 192 h
Procedure: as §1
Clonogenic assay for self-renewal: Self-renewal is the hallmark for stem cells or stem-like cells. Clonogenic assay or clonal expansion of single cell into spheroids/organoids is the reputed method to analyze cell self-renewal. […] At the end of 192 h, spheroids were counted for quantitative assessment of the number of spheroids formed.
Gamma radiation: YAMC (normal colonic epithelial cell line) were exposed to 4 Gy gamma ionizing radiation (IR) with air pumped into the chamber during exposure. […] Measured absorbance dose was: Central Dose Rate (0.790 Gy/min±2.9%); 3 o'clock position (0.804 Gy/min±3.8%); and 7 o'clock position (0.808 Gy/min±2.7%). […]
Clonogenic assay for self-renewal: Self-renewal is the hallmark for stem cells or stem-like cells. […] At the end of 192 h, spheroids were counted for quantitative assessment of the number of spheroids formed. […]

C57BL/6 mice = experiment: Barrier function study (intestinal epithelial permeability to FITC-dextran) after 14 Gy TBI; assay type: in vivo; conditions: three doses of 10 mg/kg body weight per day beginning 24 h post-IR, serum FITC 5 d post-IR
Procedure: as §1, with “radiation: 7-week-old C57BL/6 mice” for “radiation: YAMC (normal colonic epithelial cell line)”, “to total body irradiation (TBI) 14” for “to 4”, “chamber during.” for “chamber during exposure.”, “analysis. All IR treatments were begun in the morning. […] All animals received easy access to liquid gel food and water in the cage.” for “analysis.”
Barrier function study: Two hours before euthanasia (5 d post-IR), each mouse was orally administered (gavage) with 100 μL of FITC-dextran (FITC dextran 4; MW 4000) at a dose of 80 mg/100 g body weight. Serum analysis of FITC concentration was performed in triplicate using Synergy Bio TEK plate reader.
Gamma radiation: 7-week-old C57BL/6 mice were exposed to total body irradiation (TBI) 14 Gy gamma ionizing radiation (IR) with air pumped into the chamber during. A Gammacell 40 ^137Cs gamma irradiator was used with a dose rate of 0.8 Gy IR per minute. […] Measured absorbance dose was: Central Dose Rate (0.790 Gy/min±2.9%); 3 o'clock position (0.804 Gy/min±3.8%); and 7 o'clock position (0.808 Gy/min±2.7%). […]

[3] = largest among ARBs; cited from earlier work

Structure (SMILES)	YAMC cell survival (number of colonies formed) compared to vehicle treatment [1]	self-renewal ability of YAMC cells (number of spheroids formed) compared to vehicle treatment [2]	intestinal epithelial permeability to FITC-dextran versus vehicle control (C57BL/6 mice)	volume of distribution [3] [L]
CC1(C)CC(O)CC(C)(C)N1[O] [tempol, 4-hydroxy-2,2,6,6-tetramethylpiperidin-1-oxyl]	significantly increased	significantly increased	essentially the same	
CCCc1nc2c(C)cc(-c3nc4ccccc4n3C)cc2n1Cc1ccc(-c2ccccc2C(=O)O)cc1 [telmisartan, Telmisartan]	significantly increased	significantly increased	essentially the same	500
